In ChEMBL document CHEMBL1165911, “Elaborate ligand-based pharmacophore exploration and QSAR analysis guide the synthesis of novel pyridinium-based potent beta-secretase inhibitory leads” (Bioorg Med Chem, 2010):

Biological target: T1, Beta-secretase 1 (Homo sapiens, UniProt P56817)
Assay: Inhibition of BACE1 at 50 uM after 2 hrs by FRET assay

T1 sequence (P56817 whole entry): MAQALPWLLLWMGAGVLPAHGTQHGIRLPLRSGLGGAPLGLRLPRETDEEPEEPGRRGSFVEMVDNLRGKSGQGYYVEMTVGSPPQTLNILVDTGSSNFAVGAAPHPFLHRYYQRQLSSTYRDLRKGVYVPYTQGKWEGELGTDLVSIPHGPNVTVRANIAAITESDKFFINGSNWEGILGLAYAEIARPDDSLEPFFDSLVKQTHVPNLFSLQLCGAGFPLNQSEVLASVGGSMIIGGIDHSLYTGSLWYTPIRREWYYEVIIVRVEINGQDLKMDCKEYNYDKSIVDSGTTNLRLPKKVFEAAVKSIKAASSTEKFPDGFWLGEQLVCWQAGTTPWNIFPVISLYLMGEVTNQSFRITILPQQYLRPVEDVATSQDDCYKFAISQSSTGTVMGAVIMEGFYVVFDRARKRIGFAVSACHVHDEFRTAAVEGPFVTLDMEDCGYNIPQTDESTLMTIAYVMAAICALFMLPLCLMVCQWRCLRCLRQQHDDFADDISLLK

inhibition [%]	Compound
100	COc1ccc(NC(=O)c2cccc(NC(=O)C[n+]3ccccc3)c2)cc1
51	O=C(C[n+]1ccccc1)Nc1cccc(NC(=O)c2ccccc2)c1
69	Cc1ccc(NC(=O)c2cccc(NC(=O)C[n+]3cccc(C(N)=O)c3)c2)cc1
55	O=C(C[n+]1cccc(C(=O)NCCc2ccccc2)c1)Nc1cccc(NC(=O)c2ccccc2)c1
50	COc1ccc(NS(=O)(=O)c2cccc(NC(=O)C[n+]3ccccc3)c2)cc1
78	O=C(C[n+]1cccc(C(=O)NCCc2ccccc2)c1)Nc1cccc(C(=O)Nc2ccc(Cl)cc2)c1
34	COc1ccc(NS(=O)(=O)c2cccc(NC(=O)C[n+]3cccc(C(N)=O)c3)c2)cc1
24	Cc1ccc(C(=O)Nc2cccc(NC(=O)C[n+]3cccc(C(N)=O)c3)c2)cc1
54	NC(=O)c1ccc[n+](CC(=O)Nc2cccc(NC(=O)c3ccccc3)c2)c1
61	Cc1cccc(NC(=O)c2cccc(NC(=O)C[n+]3ccccc3)c2)c1
64	NC(=O)c1ccc[n+](CC(=O)Nc2cccc(C(=O)Nc3ccc(Cl)cc3)c2)c1
44	COc1ccc(NC(=O)c2cccc(NC(=O)C[n+]3cccc(C(=O)NCCc4ccccc4)c3)c2)cc1
100	COc1ccc(NC(=O)c2cccc(NC(=O)C[n+]3cccc(C(N)=O)c3)c2)cc1
100	Cc1ccc(C(=O)Nc2cccc(NC(=O)C[n+]3cccc(C(=O)NCCc4ccccc4)c3)c2)cc1
4	Cc1ccc(S(=O)(=O)Nc2cccc(NC(=O)C[n+]3cccc(C(N)=O)c3)c2)cc1
44	Cc1cccc(NC(=O)c2cccc(NC(=O)C[n+]3cccc(C(N)=O)c3)c2)c1
72	Cc1ccc(NC(=O)c2cccc(NC(=O)C[n+]3cccc(C(=O)NCCc4ccccc4)c3)c2)cc1
42	Cc1ccc(NC(=O)c2cccc(NC(=O)C[n+]3ccccc3)c2)cc1
68	Cc1ccc(C(=O)Nc2cccc(NC(=O)C[n+]3ccccc3)c2)cc1
100	O=C(C[n+]1ccccc1)Nc1cccc(C(=O)Nc2ccc(Cl)cc2)c1
36	Cc1ccc(S(=O)(=O)Nc2cccc(NC(=O)C[n+]3cccc(C(=O)NCCc4ccccc4)c3)c2)cc1
58	Cc1cccc(NC(=O)c2cccc(NC(=O)C[n+]3cccc(C(=O)NCCc4ccccc4)c3)c2)c1

Biological target: T1, Beta-secretase 1
Description: Inhibition of BACE1 after 2 hrs by FRET assay

IC50 [µM]	Compound
3.7	COc1ccc(NC(=O)c2cccc(NC(=O)C[n+]3ccccc3)c2)cc1
12	O=C(C[n+]1cccc(C(=O)NCCc2ccccc2)c1)Nc1cccc(C(=O)Nc2ccc(Cl)cc2)c1
44.7	NC(=O)c1ccc[n+](CC(=O)Nc2cccc(NC(=O)c3ccccc3)c2)c1
30.2	NC(=O)c1ccc[n+](CC(=O)Nc2cccc(C(=O)Nc3ccc(Cl)cc3)c2)c1
1.9	COc1ccc(NC(=O)c2cccc(NC(=O)C[n+]3cccc(C(N)=O)c3)c2)cc1
2.2	Cc1ccc(C(=O)Nc2cccc(NC(=O)C[n+]3cccc(C(=O)NCCc4ccccc4)c3)c2)cc1
4	Cc1ccc(NC(=O)c2cccc(NC(=O)C[n+]3cccc(C(=O)NCCc4ccccc4)c3)c2)cc1
13	Cc1ccc(C(=O)Nc2cccc(NC(=O)C[n+]3ccccc3)c2)cc1
1	O=C(C[n+]1ccccc1)Nc1cccc(C(=O)Nc2ccc(Cl)cc2)c1
100	CSc1ccc(C(O)C(CO)NC(=O)c2cc3c(n(-c4ccc(Cl)cc4)c2=O)CC(C)(C)CC3=O)cc1 (stereo not given)
100	CCSc1sc(CC)cc1C1C(C(=O)Nc2ccc(C)cn2)=C(C)NC2=C1C(=O)CC(C)(C)C2 (stereo not given)
100	Clc1ccc(/C=N/Nc2nc(NCc3ccc(Cl)cc3)nc(N3CCOCC3)n2)cc1
100	O=C(NCc1ccccc1Cl)c1ccc(N2CC3CC(C2)c2cccc(=O)n2C3)c(NS(=O)(=O)c2ccc3c(c2)OCCO3)c1 (stereo not given)
100	Cc1cccc(N(C)S(=O)(=O)c2ccc3ncc(C(=O)NCCN4CCOCC4)c(O)c3c2)c1
500	COc1cc(/C=N\NC(=O)c2ccccc2OCCOc2ccccc2)cc(Br)c1O
7.1	O=C(O)c1cc(-c2ccc(/C=N/Nc3nc(Nc4ccc(F)cc4)nc(N4CCOCC4)n3)o2)ccc1Cl

Biological target: T2, Renin (Homo sapiens) (UniProt P00797)
T2 sequence (whole entry): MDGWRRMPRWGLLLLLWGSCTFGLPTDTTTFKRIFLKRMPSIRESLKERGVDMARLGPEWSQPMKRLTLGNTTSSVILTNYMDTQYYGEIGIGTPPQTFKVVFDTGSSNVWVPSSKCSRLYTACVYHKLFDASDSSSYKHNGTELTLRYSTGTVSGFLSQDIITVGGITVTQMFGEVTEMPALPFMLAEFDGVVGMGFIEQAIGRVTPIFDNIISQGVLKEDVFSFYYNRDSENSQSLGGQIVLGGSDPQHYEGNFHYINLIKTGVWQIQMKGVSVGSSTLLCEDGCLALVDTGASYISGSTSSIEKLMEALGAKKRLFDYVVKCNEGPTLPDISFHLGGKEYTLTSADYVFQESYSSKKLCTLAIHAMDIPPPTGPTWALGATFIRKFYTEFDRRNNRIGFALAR
Assay: Inhibition of renin at 50 uM after 30 mins by fluorometric assay

inhibition [%]	Compound
0	COc1ccc(NC(=O)c2cccc(NC(=O)C[n+]3ccccc3)c2)cc1
26	O=C(C[n+]1cccc(C(=O)NCCc2ccccc2)c1)Nc1cccc(C(=O)Nc2ccc(Cl)cc2)c1
0	COc1ccc(NC(=O)c2cccc(NC(=O)C[n+]3cccc(C(N)=O)c3)c2)cc1
22	Cc1ccc(C(=O)Nc2cccc(NC(=O)C[n+]3cccc(C(=O)NCCc4ccccc4)c3)c2)cc1
26	Cc1ccc(NC(=O)c2cccc(NC(=O)C[n+]3cccc(C(=O)NCCc4ccccc4)c3)c2)cc1
0	Cc1ccc(C(=O)Nc2cccc(NC(=O)C[n+]3ccccc3)c2)cc1
0	O=C(C[n+]1ccccc1)Nc1cccc(C(=O)Nc2ccc(Cl)cc2)c1
